# From patent US20170223976A1, “MODIFIED MILK POWDER CONTAINING 1,5-ANHYDRO-D-GLUCITOL” (NIHON STARCH CO., LTD., priority 2015, published 2017)
# Tests used:
# PSG-1 gene = PSG-1 gene expression in intestinal tract cells (Caco-2), real-time RT-PCR; assay type: cell-based; conditions: Caco-2 cells; for expression level of PSG-1 gene relative to non-added section: 3 days
# Procedure: PSG-1 is a gene which is expressed in placental cells in large quantities in pregnancy. The influence of 1,5-AG upon the expression of PSG-1 in intestinal tract cells which is not connected with pregnancy was investigated.
# A test was carried out at five concentrations (1.6, 8, 40, 200 and 1,000 μg/mL) of 1,5-AG. Stated more specifically, a 1,5-AG aqueous solution having a concentration of 100 mg/mL was diluted with water to prepare 100 times-concentrated solutions having concentrations of 0.16, 0.8, 4, 20 and 100 mg/mL. These 100 times-concentrated solutions were each added to a medium in a ratio of 1/100 to achieve final concentrations of […] and sterilized with a filter to be used in the test. As a negative control, water was added to a medium in a ratio of 1/100 and sterilized with a filter to be used in the test.
# A medium was used to adjust Caco-2 cells to a concentration of 1×10^5 cells/0.3 mL/well, and the cells were scattered on a 48-well plate to be cultured in a CO2 incubator (5% CO2, 37° C.) for 14 days (medium was exchanged every other day). After culture, it was confirmed that the cells were differentiated into intestinal epidermoid cells, the medium was replaced by a sample-containing test medium and a control-containing test medium to culture the cells in a CO2 incubator for 3 days, and total RNA was extracted from the cells to analyze the expression level of PSG-1 gene. These procedures were repeated five times each.
# Total RNA was extracted by using the FastLane Cell cDNA kit. […]
# The synthesis of cDNA was carried out by using the QuantiTect reverse transcription kit. […]
# Real-time PCT was carried out by an intercalator method using SYBR Green I. Stated more specifically, a total of an 8 μL system consisting of 1 μL of synthesized cDNA, 2.6 μL of dsH2O, 4 μL of SYBR Premix ExTag, 0.2 μL of Forward primer (5 μM) and 0.2 μL of Reverse primer (5 μM) was used. […] The relative expression level was calculated by the ? […]
# type 2 diabetes model = conditions: in vivo; cited from earlier work
# mesenchymal stem cells = experiment: GeneChip analysis using mesenchymal stem cells; assay type: cell-based, human; conditions: 1,5-AG reduced from 40 μg/mL to 1 μg/mL or less, 10th day
# Procedure: GeneChip analysis using mesenchymal stem cells was carried out to clarify the function of 1,5-AG in a human. After 1,5-AG was added to a medium to ensure that the final concentration of 1,5-AG became not more than 1 μg/mL or 40 μg/mL and the mesenchymal stem cells were cultured for 10 days, total RNA was collected to carry out GeneChip analysis so as to analyze genes which were expressed and fluctuated according to the difference in the amount of 1,5-AG cyclopaedically. A similar test was carried out 3 times to obtain results which were then summarized and analyzed. The test was carried out by the following method.
# Crystalline 1,5-AG was dissolved in pure water to a concentration of 40 mg/mL and filtered with a centrifugal ultrafiltration membrane having a molecular weight cut-off of 3,000 to remove trace macromolecules.
# Mesenchymal cells derived from bone marrow (Riken Cell Bank, Resource No. MSC-R46)
# DMEM prepared by adding 10% fetal bovine serum (FBS) and a 3 ng/mL fibroblast growth factor (FGF-2) (to be referred to as “growth medium” hereinafter) was used for the preculture of the mesenchymal stem cells. 10% FBS-added DMEM (to be referred to as “test medium” hereinafter) was used in this test. FGF-2 has the function of keeping the undifferentiated state of the mesenchymal stem cells, and the undifferentiated state of the cells was maintained by using the FGF-2-added medium during preculture. In this test, to analyze the differentiation-inducing effect of the sample, a medium containing no FGF-2 was used.
# The human mesenchymal cells were initiated in a T-75 flask by using the growth medium and cultured in a CO2 incubator (5% CO2, 37° C., moistening). Medium exchange was carried out every 2 days, and the cells were separated by using 0.25% Trypsin/EDTA when 80% confluence was reached and collected to be used in this test.
# The sample was added to a test medium to ensure that the final concentration of 1,5-AG became 40 μg/mL. […]
smiles,measurement,setting,value
"OC[C@H]1OC[C@H](O)[C@@H](O)[C@@H]1O [1,5-AG, 1,5-anhydro-D-glucitol]",expression level of PSG-1 gene relative to non-added section,PSG-1 gene; 8 μg/mL,1.31 times
same,expression level of PSG-1 gene relative to non-added section,PSG-1 gene; 40 μg/mL,1.34 times
same,average expression level of PSG-1 gene versus non-added section,"PSG-1 gene; 3 days, 1,5-AG added section",tends to become higher
same,anti-diabetic effect,type 2 diabetes model,anti-diabetic effect
same,expression of CSH-1,mesenchymal stem cells,decreases as well
same,expression of interleukin 6 signal transducer (IL6ST) gene,mesenchymal stem cells,reduced most
same,expression of pregnancy specific beta-1-glycoprotein 1 (PSG-1) gene,mesenchymal stem cells; rank among genes whose expression was reduced,observed after these
